Data: patent publication US8846750B2, “Pharmaceutical and food compositions for preventing or treating diabetes or obesity” (Korea Ocean Research and Development Institute, priority 2010, dated 2014)

Legend:
[1] = system: db/db mice (type 2 diabetic model animals); assay: Blood glucose level following 6 hours of fasting after intraperitoneal administration; assay type: in vivo; settings: 10 mg/kg intraperitoneally daily; for increase in the fasting blood glucose level compared with control group: days 0-21, 6 hours of fasting; for average blood glucose level after 6 hours of fasting: db/db mice
Experimental: (§1) In order to more accurately measure the antidiabetic effect of sodium lobarate, 200 μl of PBS for a control group and 10 mg/kg of sodium lobarate (PTP-1b activity inhibitory compound) for a test group was administered, respectively, intraperitoneally daily to 7-week-old male db/db mice (type 2 diabetic model animals, C57/BLKS/J-db/db, the Korea Research Institute of Bioscience and Biotechnology), and the blood glucose levels of the animals were measured twice a week. Herein, measurement of the blood glucose level was performed after 6 hours of fasting after intraperitoneal injection of sodium lobarate.
as §1, with “effect of Lobarin, 200 μl” for “effect of sodium lobarate, 200 μl”, “mg/kg of Lobarin for a” for “mg/kg of sodium lobarate (PTP-1b activity inhibitory compound) for a”, “blood glucose levels was performed” for “blood glucose level was performed”, “injection of Lobarin.” for “injection of sodium lobarate.”
In order to more accurately measure the antidiabetic effect of Lobarstin, 200 μl of PBS for a control group and 10 mg/kg of Lobarstin for a test group was administered intraperitoneally daily to 7-week-old male db/db mice (type 2 diabetic model animals, C57/BLKS/J-db/db, the Korea Research Institute of Bioscience and Biotechnology), and the blood glucose levels of the animals were measured twice a week. Herein, measurement of the blood glucose levels was performed after 6 hours of fasting after intraperitoneal injection of Lobarstin.

[2] = system: db/db mice (type 2 diabetic model animals); assay: Change in blood glucose level after intraperitoneal administration; assay type: in vivo; settings: 10 mg/kg intraperitoneally daily; for increase in the blood glucose level compared with control group: days 0-21; for average blood glucose level: db/db mice
Experimental: (§2) Based on pre-tests, effectiveness tests and toxicity tests for sodium lobarate, dose (expressed as test compound amount (mg)/test animal's weight (kg)) was determined. To 7-week-old male db/db mice (type 2 diabetic model animals, C57/BLKS/J-db/db, the Korea Research Institute of Bioscience and Biotechnology), 200 μl of PBS for a control group and 10 mg/kg of sodium lobarate (PTP-1b activity inhibitory compound) for a test group was administered, respectively, intraperitoneally daily, and the blood glucose levels of the animals were measured twice a week.
Specifically, sodium lobarate (PTP-1b activity inhibitory compound) was administered by intraperitoneal injection to 7-week-old male db/db mice (type 2 diabetic model animals, C57/BLKS/J-db/db, the Korea Research Institute of Bioscience and Biotechnology), and the change in the blood glucose level of the animals was measured.
as §2, with “Lobarin,” for “sodium lobarate,”, “Lobarin” for “sodium lobarate (PTP-1b activity inhibitory compound)”
Specifically, Lobarin was administered by intraperitoneal injection to 7-week-old male db/db mice (type 2 diabetic model animals, C57/BLKS/J-db/db, the Korea Research Institute of Bioscience and Biotechnology), and the change in blood glucose level of the animals was measured.
as §2, with “Lobarstin,” for “sodium lobarate,”, “Lobarstin” for “sodium lobarate (PTP-1b activity inhibitory compound)”
Specifically, Lobarstin was administered by intraperitoneal injection to 7-week-old male db/db mice (type 2 diabetic model animals, C57/BLKS/J-db/db, the Korea Research Institute of Bioscience and Biotechnology), and the change in blood glucose level of the animals was measured.

Compound | increase in the fasting blood glucose level compared with control group [1] | average blood glucose level after 6 hours of fasting ([1]; day 0) | average blood glucose level after 6 hours of fasting ([1]; day 3) | average blood glucose level after 6 hours of fasting ([1]; day 7) | average blood glucose level after 6 hours of fasting ([1]; day 10) | average blood glucose level after 6 hours of fasting ([1]; day 14) | average blood glucose level after 6 hours of fasting ([1]; day 17) | average blood glucose level after 6 hours of fasting ([1]; day 21) | increase in the blood glucose level compared with control group [2] | average blood glucose level ([2]; day 0) | average blood glucose level ([2]; day 3) | average blood glucose level ([2]; day 7) | average blood glucose level ([2]; day 10) | average blood glucose level ([2]; day 14) | average blood glucose level ([2]; day 17) | average blood glucose level ([2]; day 21)
CCCCCc1c2c(cc(O)c1C(=O)[O-])OC(=O)c1c(cc(OC)cc1C(=O)CCCC)O2.[Na+] [sodium lobarate] | less than that in the control group | 141 mg/dL | 142 mg/dL | 185 mg/dL | 206 mg/dL | 232 mg/dL | 236 mg/dL | 313 mg/dL | less than that in the control group | 267 mg/dL | 276 mg/dL | 378 mg/dL | 378 mg/dL | 407 mg/dL | 415 mg/dL | 459 mg/dL
CCC/C=C1/OC(=O)c2c(Oc3c(O)cc(O)c(C(=O)O)c3CCCCC)cc(OC)cc21 [Lobarstin] | less than that in the control group | 134 mg/dL |  | 182 mg/dL |  | 162 mg/dL |  | 204 mg/dL | less than that in the control group | 299 mg/dL |  | 259 mg/dL |  | 267 mg/dL |  | 242 mg/dL
CCCCCc1c(Oc2cc(OC)cc3c2C(=O)OC3(O)CCCC)c(O)cc(O)c1C(=O)O (stereo not drawn) [Lobarin] | less than that in the control group | 152 mg/dL | 141 mg/dL | 155 mg/dL | 198 mg/dL | 261 mg/dL | 287 mg/dL | 340 mg/dL | less than that in the control group | 267 mg/dL | 278 mg/dL | 298 mg/dL | 315 mg/dL | 352 mg/dL | 379 mg/dL | 425 mg/dL
